Our source for the EC50 values is patent US9133158B2, “Bicyclic dihydroisoquinoline-1-one derivatives” (Hoffmann-La Roche Inc., priority 2011, dated 2015).

The EC50 is the concentration needed to bring the measured effect to its halfway point.

The target of one assay is T1, human CYP11B1 (Homo sapiens, UniProt P15538).
T1 construct: expressed in transfected cells
T1 sequence (P15538 25-503): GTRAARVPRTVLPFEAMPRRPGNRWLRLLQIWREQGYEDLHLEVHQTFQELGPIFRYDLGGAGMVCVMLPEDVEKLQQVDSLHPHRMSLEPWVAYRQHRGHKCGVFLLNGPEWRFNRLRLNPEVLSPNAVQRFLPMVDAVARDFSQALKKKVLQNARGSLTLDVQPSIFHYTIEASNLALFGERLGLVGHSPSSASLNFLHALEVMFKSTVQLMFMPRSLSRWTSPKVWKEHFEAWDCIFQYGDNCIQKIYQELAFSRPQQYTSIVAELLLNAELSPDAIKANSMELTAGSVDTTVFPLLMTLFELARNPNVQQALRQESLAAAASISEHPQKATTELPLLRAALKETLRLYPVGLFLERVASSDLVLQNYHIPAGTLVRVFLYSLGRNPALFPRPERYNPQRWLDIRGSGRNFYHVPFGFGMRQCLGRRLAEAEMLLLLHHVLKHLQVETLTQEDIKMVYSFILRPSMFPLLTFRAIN
The experiment in a line: G-402 cellular enzyme assay, human CYP11B1 (cortisol release, HTRF). The assay is classed as cell-based. Particulars: G-402 cells, 1 μM Deoxycortisol. In short, it runs like this:
(§1)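 Cellular format in stably transfected G-402 cells over 16 h. HTRF quantified aldosterone (CYP11B2, 1 μM deoxycorticosterone substrate) or cortisol (CYP11B1, 1 μM deoxycortisol substrate); EC50 obtained by fitting a 4-parameter sigmoid to dose–response data.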
For orientation: Time-resolved FRET reads energy transfer from a long-lived donor to a nearby acceptor.

A further assay concerns the target T2, human CYP11B2 (Homo sapiens, UniProt P19099).
T2 construct: expressed in transfected cells
T2 sequence (P19099 25-503): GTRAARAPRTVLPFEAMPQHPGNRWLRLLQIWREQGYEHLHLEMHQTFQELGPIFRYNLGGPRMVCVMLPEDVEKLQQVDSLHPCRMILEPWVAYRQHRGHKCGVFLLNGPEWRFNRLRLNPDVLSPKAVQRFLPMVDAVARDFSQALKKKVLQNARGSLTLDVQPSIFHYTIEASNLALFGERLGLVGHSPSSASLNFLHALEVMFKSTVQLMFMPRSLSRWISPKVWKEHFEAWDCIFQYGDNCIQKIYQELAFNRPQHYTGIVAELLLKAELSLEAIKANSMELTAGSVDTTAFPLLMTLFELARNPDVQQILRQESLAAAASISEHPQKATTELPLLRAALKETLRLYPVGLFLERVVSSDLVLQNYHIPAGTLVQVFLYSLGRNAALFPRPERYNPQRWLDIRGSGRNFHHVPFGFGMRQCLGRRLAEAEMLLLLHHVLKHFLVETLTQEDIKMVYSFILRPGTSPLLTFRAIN
The experiment in a line: G-402 cellular enzyme assay, human CYP11B2 (aldosterone release, HTRF). Particulars: G-402 cells, 1 μM Deoxycorticosterone. The assay is classed as cell-based. In short, it runs like this:
as §1

As for `COC(c1cncc(N2CCc3cc(Cl)ccc3C2=O)c1)C1CC1` (stereo not drawn) [Example 21, 6-Chloro-2-[5-(cyclopropyl-methoxy-methyl)-pyridin-3-yl]-3,4-dihydro-2H-isoquinolin-1-one], the EC50 on human CYP11B1 is 263 nM; on human CYP11B2, 41.5 nM.

Turning to `CC[C@@H]1c2cc(Cl)ccc2C(=O)N1c1cncc2c1CCC[C@H]2NS(C)(=O)=O` (single isomer, unassigned) [Example 347, N-[(R or S)-4-((R or S)-5-Chloro-3-ethyl-1-oxo-1,3-dihydro-isoindol-2-yl)-5,6,7,8-tetrahydro-isoquinolin-8-yl]-methanesulfonamide], the EC50 at human CYP11B1 was found to be 22900 nM; at human CYP11B2, 162 nM.

As for `O=C1c2ccc(Cl)cc2CCN1c1cncc(CNc2ccccc2)c1` [Example 257, 6-Chloro-2-(5-phenylaminomethyl-pyridin-3-yl)-3,4-dihydro-2H-isoquinolin-1-one], the results for the EC50 at human CYP11B1 and on human CYP11B2 were 95.4 nM and 11.3 nM, respectively.

For the compound `O=C1c2ccc(Cl)cc2CCN1c1cncc(-c2cccc(OC(F)(F)F)c2)c1` [Example 237, 6-Chloro-2-[5-(3-trifluoromethoxy-phenyl)-pyridin-3-yl]-3,4-dihydro-2H-isoquinolin-1-one], the figures for the EC50 on human CYP11B1 and at human CYP11B2 were 3610 nM and 204 nM, respectively.

For the compound `Nc1cncc(N2CCc3cc(Cl)ccc3C2=O)c1` [Example 17, 2-(5-Aminopyridin-3-yl)-6-chloro-3,4-dihydro-2H-isoquinolin-1-one], the EC50 was 14000 nM on human CYP11B1 and 597 nM on human CYP11B2.

With `Cc1nccn1Cc1cncc(N2CCc3cc(Cl)ccc3C2=O)c1` [Example 142, 6-Chloro-2-[5-(2-methyl-imidazol-1-ylmethyl)-pyridin-3-yl]-3,4-dihydro-2H-isoquinolin-1-one], the EC50 on human CYP11B1 is 981 nM; on human CYP11B2 it was 80.2 nM.

Take `CC(OCc1cncc(N2CCc3cc(Cl)ccc3C2=O)c1)C(F)(F)F` (stereo not drawn) [Example 195, 6-Chloro-2-[5-(2,2,2-trifluoro-1-methyl-ethoxymethyl)-pyridin-3-yl]-3,4-dihydro-2H-isoquinolin-1-one]: the concentration for a half-maximal effect (EC50) at human CYP11B1 is 486 nM; at human CYP11B2 it was 37.3 nM.

Turning to `COc1cncc(N2CC(C)(C)c3cc(Cl)ccc3C2=O)c1` [Example 103, 6-Chloro-2-(5-methoxy-pyridin-3-yl)-4,4-dimethyl-3,4-dihydro-2H-isoquinolin-1-one], the concentration giving a half-maximal response (EC50) was 11000 nM on human CYP11B1 and 564 nM at human CYP11B2.

With `CCCc1nccn1Cc1cncc(N2CCc3cc(Cl)ccc3C2=O)c1` [Example 161, 6-Chloro-2-[5-(2-propyl-imidazol-1-ylmethyl)-pyridin-3-yl]-3,4-dihydro-2H-isoquinolin-1-one], the EC50 at human CYP11B1 amounted to 341 nM; at human CYP11B2, 101 nM.

Consider `O=C1c2ccc(Cl)cc2CCN1c1cncc(Cc2c(F)cccc2Cl)c1` [Example 215, 6-Chloro-2-[5-(2-chloro-6-fluoro-benzyl)-pyridin-3-yl]-3,4-dihydro-2H-isoquinolin-1-one], for which the half-maximal effective concentration (EC50) worked out at 137 nM on human CYP11B1 and 29.6 nM on human CYP11B2.

As for `Cc1ccnn1Cc1cncc(N2CCc3cc(Cl)ccc3C2=O)c1` [Example 71, 6-Chloro-2-[5-(5-methyl-pyrazol-1-ylmethyl)-pyridin-3-yl]-3,4-dihydro-2H-isoquinolin-1-one], the EC50 on human CYP11B1 came out at 1580 nM; on human CYP11B2, 90.2 nM.

`CC1(C)c2ccc(F)cc2C(=O)N1c1cncc(CNS(C)(=O)=O)c1` [Example 406, N-[5-(5-Fluoro-1,1-dimethyl-3-oxo-1,3-dihydro-isoindol-2-yl)-pyridin-3-ylmethyl]-methane-sulfonamide]: the values for the EC50 on human CYP11B1 and at human CYP11B2 were 3150 nM and 165 nM, respectively.

In the case of `O=C1c2ccc(Cl)cc2CCN1c1cncc(Cn2ccnc2C(F)(F)F)c1` [Example 189, 6-Chloro-2-[5-(2-trifluoromethyl-imidazol-1-ylmethyl)-pyridin-3-yl]-3,4-dihydro-2H-isoquinolin-1-one], the EC50 was 710 nM on human CYP11B1 and 55.3 nM at human CYP11B2.

For the compound `CCC1c2ccc(Cl)cc2C(=O)N1c1cncc(CNS(C)(=O)=O)c1` (single isomer, unassigned) [Example 407, N-[5-((R or S)-5-Chloro-1-ethyl-3-oxo-1,3-dihydro-isoindol-2-yl)-pyridin-3-ylmethyl]-methane-sulfonamide], the EC50 on human CYP11B1 came to 20700 nM; on human CYP11B2, 987 nM.

With `CC[C@H]1c2cc(Cl)ccc2C(=O)N1c1cncc2c1CCC[C@@H]2NC(C)=O` (single isomer, unassigned) [Example 356, N-[(S or R)-4-((S or R)-5-Chloro-3-ethyl-1-oxo-1,3-dihydro-isoindol-2-yl)-5,6,7,8-tetrahydro-isoquinolin-8-yl]-acctamide], the EC50 on human CYP11B1 was 737 nM; at human CYP11B2 it was 2000 nM.

In the case of `O=C1c2ccc(Cl)cc2CCN1c1cncc(-c2cn[nH]c2)c1` [Example 229, 6-Chloro-2-[5-(1H-pyrazol-4-yl)-pyridin-3-yl]-3,4-dihydro-2H-isoquinolin-1-one], the EC50 at human CYP11B1 turned out to be 745 nM; at human CYP11B2 it was 204 nM.

Take `O=C1c2ccc(Cl)cc2CCN1c1cncc(CN2CCC(O)C2)c1` (stereo not drawn) [Example 146, 6-Chloro-2-[5-(3-hydroxy-pyrrolidin-1-ylmethyl)-pyridin-3-yl]-3,4-dihydro-2H-isoquinolin-1-one]: the EC50 at human CYP11B1 is 114 nM; at human CYP11B2, 39.8 nM.

Regarding `Cc1noc(C)c1-c1cncc(N2CCc3cc(Cl)ccc3C2=O)c1` [Example 230, 6-Chloro-2-[5-(3,5-dimethyl-isoxazol-4-yl)-pyridin-3-yl]-3,4-dihydro-2H-isoquinolin-1-one], the EC50 was found to be 149 nM on human CYP11B1 and 7 nM on human CYP11B2.

On to `O=C1c2ccc(Cl)cc2CCN1c1cccnc1` [Example 1, 6-Chloro-2-pyridin-3-yl-3,4-dihydro-2H-isoquinolin-1-one], for which the EC50 stood at 4610 nM at human CYP11B1 and 86 nM at human CYP11B2.

Consider `CC(=O)N1CCC(Oc2cncc(N3C(=O)c4ccc(Cl)cc4C3(C)C)c2)CC1` [Example 449, 2-[5-(1-Acetyl-piperidin-4-yloxy)-pyridin-3-yl]-5-chloro-3,3-dimethyl-2,3-dihydro-isoindol-1-one], for which the EC50 at human CYP11B1 was 235 nM; on human CYP11B2 it was 2.8 nM.

As for `COc1ccc2c(n1)C(C)(C)N(c1cncc(F)c1)C2=O` [Example 294, 6-(5-Fluoro-pyridin-3-yl)-2-methoxy-7,7-dimethyl-6,7-dihydro-pyrrolo[3,4-b] pyridin-5-one], the figures for the EC50 at human CYP11B1 and at human CYP11B2 were 9850 nM and 204 nM, respectively.

For `O=C1c2ccc(Cl)cc2CCN1c1cncc(COC2CCCC2)c1` [Example 197, 6-Chloro-2-(5-cyclopentyloxymethyl-pyridin-3-yl)-3,4-dihydro-2H-isoquinolin-1-one], the EC50 was found to be 555 nM at human CYP11B1 and 46.8 nM at human CYP11B2.

`CC1(C)c2cc(Cl)ccc2C(=O)N1c1cncc(CN2CCCCC2=O)c1` [Example 410, 5-Chloro-3,3-dimethyl-2-[5-(2-oxo-piperidin-1-ylmethyl)-pyridin-3-yl]-2,3-dihydro-isoindol-1-one]: the EC50 at human CYP11B1 came out at 1730 nM; on human CYP11B2 it was 16.5 nM.

Take `CS(=O)(=O)NC1CCc2c1cncc2N1CCc2cc(Cl)ccc2C1=O` (single isomer, unassigned) [Example 331, N-[(R or S)-4-(6-Chloro-1-oxo-3,4-dihydro-1H-isoquinolin-2-yl)-6,7-dihydro-5H-[2]pyrindin-7-yl]-methanesulfonamide]: the EC50 stood at 35100 nM on human CYP11B1 and 4350 nM at human CYP11B2.

In the case of `Cn1nccc1-c1cncc(N2C(=O)c3ccc(Cl)cc3C2(C)C)c1` [Example 418, 5-Chloro-3,3-dimethyl-2-[5-(2-methyl-2H-pyrazol-3-yl)-pyridin-3-yl]-2,3-dihydro-isoindol-1-one], the EC50 at human CYP11B1 came to 62 nM; at human CYP11B2 it was 4 nM.

As for `CCC1c2cc(Cl)ccc2C(=O)N1c1cncc(C(C)O)c1` (stereo not drawn) [Example 283, 5-Chloro-3-ethyl-2-[5-(1-hydroxy-ethyl)-pyridin-3-yl]-2,3-dihydro-isoindol-1-one], the values for the EC50 on human CYP11B1 and at human CYP11B2 were 633 nM and 66.7 nM, respectively.

For the compound `O=C1CCCN1c1cncc(N2CCc3cc(Cl)ccc3C2=O)c1` [Example 26, 6-Chloro-2-[5-(2-oxo-pyrrolidin-1-yl)-pyridin-3-yl]-3,4-dihydro-2H-isoquinolin-1-one], the EC50 on human CYP11B1 turned out to be 8150 nM; on human CYP11B2, 321 nM.
